Data on 2 compounds can be found in publication PMC8081293 (Frontiers in Chemistry, 2021).

Holding throughout (assay): acetophenone formation at […] nm, Michaelis-Menten fit
Type in all cases: biochemical
What all share (details): 0.1 mM PLP, 0.25% DMSO, 50 mM sodium phosphate pH 8.0, 25°C

Assay [1] concerns the target T1, At-ATA (Aspergillus terreus, UniProt Q0C8G1, E133Q).
T1 construct: gene ATEG_10023

Assay [2] has as its target T2, At-ATA (Aspergillus terreus, UniProt Q0C8G1, D224K).
T2 construct: gene ATEG_10023

Assay [3] has as its target T3, At-ATA (Aspergillus terreus, UniProt Q0C8G1, E253A).
T3 construct: gene ATEG_10023

Setting [4] is: read-out: Km1-(R)-PEA /, 2.5 mM pyruvate.
Setting [5] is: read-out: Kmpyruvate /, 2.5 mM 1-(R)-PEA.

Molecules are shown by their SMILES. Where two headings read alike, the source gives them in different places.

For the compound `C[C@@H](N)c1ccccc1` [1-(R)-PEA], the Km in assay [1] (setting [4]) came to 160 ± 10 µM; in assay [2] (setting [4]) it was 140 ± 10 µM; in assay [3] (setting [4]), 170 ± 20 µM.
Turning to `CC(=O)C(=O)O` [pyruvate], the results for the Km in assay [1] (setting [5]), in assay [2] (setting [5]) and in assay [3] (setting [5]) were 500 ± 10 µM, 350 ± 20 µM and 690 ± 10 µM, respectively.
